# How the values were obtained:
# glioblastoma = details: xenograft model in SD rats; Shin J Y et. al. 2012; cited from earlier work
# [1] = system: hepatic stellate cells separated from mouse liver; assay: Lipogenesis-related index in hepatic stellate cells separated from mouse liver; assay type: in vivo; details: EtOH+GF2 vs EtOH+Vehicle; FIG. 4b
# Procedure: (§1) 50 mg/kg of ginsenoside F2 (indicated by GF2 in Drawing) dissolved in 3 g/kg of ethanol, together with a normal diet, were orally administered to 8-week-old male mice (weighing 25 g to 28 g) between 3 PM and 4 PM every day for 2 weeks. After 2 weeks, they were sacrificed, and the following experiment was performed.
# isolated monocytes = assay: Real-time PCR of isolated hepatic monocytes of ethanol-fed mice; assay type: in vivo; details: FIG. 6d
# From the text: (§2) Mice were fed with 3 g/kg of ethanol together with a normal diet every day for 2 weeks. In this regard, Group 1 (E+Veh) was fed with vehicle, and Group 2 (E+GF2) was fed with ginsenoside F2.
# (§3) Further, the isolated monocytes were subjected to real-time PCR. As a result, expression of the inflammatory cytokines TNF-α, IL-6, and IL-17 increased by alcohol was inhibited by ginsenoside F2, and expression of anti-inflammatory cytokine IL-10 was increased thereby (FIG. 6d). These effects are consistent with the results of ELISA of mouse serum (FIG. 6e).
# [2] = system: human hepatocyte cell line HepG2A; assay: LXR-mediated fat synthesis in HepG2A (real-time PCR); assay type: cell-based
# Procedure: To examine a fat synthesis inhibition mechanism of ginsenoside F2, human hepatocyte cell line HepG2A was treated with 30 μM ginsenoside F2, and 30 minutes later, further treated with 10 μM TO901317, which induces fat synthesis as an LXR agonist stimulating fatty acid synthesis, followed by culture for 9 hours.
# Further, HepG2A was treated with ginsenoside F2 by varying its concentration from 0 μM to 100 μM, and cultured for 12 hours.
# male mice = assay: Measurement of serum ALT, AST, TG and total cholesterol levels in ethanol-fed mice; assay type: in vivo; details: 50 mg/kg oral with 3 g/kg ethanol daily for 2 weeks
# Procedure: as §1
# Blood was collected from mouse abdominal aorta and centrifuged using a centrifuge at 3,300 rpm for 10 minutes to separate only the serum. The levels of ALT (alanine aminotransferase) and AST ([…]) in the serum were measured using a kit of IDEXX Laboratories (USA) in accordance with the manufacturer's instructions by VetTEST (IDEXX, USA). Further, 50 mg of the hepatic tissue was excised and ground, and then a chloroform-methanol (2:1) solution was added thereto, followed by centrifugation. The lipid components contained in the hepatic tissue were extracted, and the levels of triglyceride (TG) and total cholesterol in the extract solution were measured using a kit of IDEXX Laboratories (USA) in accordance with the manufacturer's instructions by VetTEST.
# [3] = system: monocytes isolated from the liver; assay: Flow cytometry of monocytes / inflammatory cells isolated from the liver of ethanol-fed mice; assay type: in vivo; details: 3 g/kg ethanol daily for 2 weeks
# Procedure: as §2
# Thereafter, monocytes were isolated from the liver, and stained with the macrophage markers, CD11b and F4/80, followed by flow cytometry. As a result, treatment of ginsenoside F2 reduced a percentage of macrophage (FIG. 6a). Flow cytometry was also performed using the neutrophil markers CD11b and Gr-1. As a result, treatment of ginsenoside F2 reduced a percentage of neutrophil (FIG. 6b).
# Further, inflammatory cells in the liver were stained with regulatory T cell (Treg) markers, CD4, CD25, and Foxp3. As a result, treatment of ginsenoside F2 increased regulatory T cells, and decreased Th17 cells (IL-17 and CD4 positive) which are one of proinflammatory cells.
# hepatic monocytes = assay: IL-10-deficient mice: hepatic monocytes (flow cytometry, real-time PCR); assay type: in vivo
# Procedure: (§4) 8-week-old IL-10-deficient male mice (weighing 25 g to 28 g) were orally administered with 3 g/kg ethanol and 50 mg/kg ginsenoside F2, together with a normal diet, every day for 2 weeks (E+GF2). A control group was fed with an equal amount of ethanol and vehicle instead of ginsenoside F2 (E+Veh). 2 weeks later, the sera, liver tissues, and hepatic monocytes were obtained from the mice by autopsy. Thereafter, in the same manner as in Example 1. (1), the serum ALT, AST, TG, and cholesterol levels were measured, and necrotic foci were examined in the liver tissue to count the number of necrotic foci in two sections of the liver. In the hepatic monocytes, macrophage and neutrophil expression levels were examined by flow cytometry using F4/80 or Gr1 antigen marker.
# mouse serum = assay: ELISA of mouse serum (cytokines); assay type: in vivo; details: compared with real-time PCR results; FIG. 6e
# From the text: as §2, §3
# [4] = system: co-cultured hepatic stellate cells; assay: Co-culture with ethanol: co-cultured hepatic stellate cells; assay type: cell-based, mice; details: 100 mM ethanol 12 hours, then 30 μM for 6 or 12 hours; FIG. 5d
# Procedure: (§5) During the culture, they were treated with 100 mM ethanol for 12 hours, and then 30 μM ginsenoside F2 for 6 hours or 12 hours.
# [5] = system: breast cancer stem cells (CSCs); details: Mai T T et al. 2012; cited from earlier work
# co-cultured hepatocytes = assay: Co-culture with ethanol: co-cultured hepatocytes (Western blotting, real-time PCR); assay type: cell-based, mice; details: 100 mM ethanol 12 hours, then 30 μM for 6 or 12 hours
# Procedure: as §5
# Hepatic stellate cells = Hepatic stellate cells treated with TO901317 (real-time PCR and Western blotting); assay type: cell-based; details: 30 μM, 30 minutes later 10 μM TO901317, culture 12 hours
# Procedure: Hepatic stellate cells were treated with 30 μM of ginsenoside F2, and 30 minutes later, further treated with 10 μM TO901317, followed by culture for 12 hours. FIGS. 5f and 5g show the results of real-time PCR and Western blotting of the cultured hepatic stellate cells.
# Naive T cells = assay: Differentiation of naive T cells into IL-17-producing Th17 cells; assay type: cell-based, mice; details: 0 μM to 30 μM
# Procedure: Naive T cells were isolated from mice, and treated with 5 ng/mL TGF-β1 and 20 ng/mL IL-6, and then cultured in a CD3/28 antibody-coated dish for 3.5 days to differentiate the cells into proinflammatory Th17 cells (T helper 17 cells). In this regard, the cells were also treated with ginsenoside F2 by varying its concentration (0 μM to 30 μM), and markers for Th17 cells were examined, and the results are shown in FIGS. 7a to 7c. N represents naive T cells treated with none of TGF-β1, IL-6, and ginsenoside F2.
# [6] = system: IL-10-deficient male mice; assay: IL-10-deficient mice: serum levels and necrotic foci of liver tissue; assay type: in vivo; details: 50 mg/kg oral with 3 g/kg ethanol daily for 2 weeks
# Procedure: as §4
# [7] = system: hepatocytes separated from mouse liver; assay: Lipogenesis-related index in hepatocytes separated from mouse liver; assay type: in vivo; details: EtOH+GF2 vs EtOH+Vehicle; FIG. 4a
# Procedure: as §1
# liver tissue = assay: Liver histological analysis (H&E, TUNEL, Oil-red O staining); assay type: in vivo, mice; details: 50 mg/kg oral with 3 g/kg ethanol, 2 weeks
# liver tissues = assay: Western blotting of proteins extracted from the liver tissues; assay type: in vivo, mice; details: FIG. 4c
# Procedure: as §1
# Expression of fat oxidation-inducing pAMPK was increased and expression of lipogenic SREBP1c and FAS was reduced by administration of ginsenoside F2.
# [8] = 0 μM to 100 μM, cultured for 12 hours, FIG. 5f
# [9] = 30 μM, 30 minutes later 10 μM TO901317, culture 9 hours, real-time PCR, FIG. 5e
# [10] = 50 mg/kg, 2 weeks, flow cytometry, FIGS. 8d and 8e
# [11] = real-time PCR using monocytes, FIG. 8h
# [12] = 5 ng/mL TGF-β1 and 20 ng/mL IL-6, 3.5 days, FIGS. 7a and 7b
smiles,measurement,setting,value
CC(C)=CCC[C@](C)(O[C@@H]1O[C@H](CO)[C@@H](O)[C@H](O)[C@H]1O)[C@H]1CC[C@]2(C)[C@@H]1[C@H](O)C[C@@H]1[C@@]3(C)CC[C@H](O[C@@H]4O[C@H](CO)[C@@H](O)[C@H](O)[C@H]4O)C(C)(C)[C@@H]3CC[C@]12C [ginsenoside F2],anti-cancer effects on glioblastoma,glioblastoma,exhibits anti-cancer effects
same,"expression of DAGL-α,β",[1],significantly reduced
same,fatty acid amide hydrolase (FAAH) expression,[1],significantly increased
same,expression of anti-inflammatory cytokine IL-10,isolated monocytes,increased
same,expression of inflammatory cytokine IL-6 increased by alcohol,isolated monocytes,inhibited
same,expression of inflammatory cytokine IL-17 increased by alcohol,isolated monocytes,inhibited
same,expression of inflammatory cytokine TNF-α increased by alcohol,isolated monocytes,inhibited
same,concentration at which an excellent inhibitory effect on SREBP1c and FAS expression was observed,[2]; [8],≥ 40 µM
same,expression of FAS,[2]; [8],reduced
same,expression of SREBP1c,[2]; [8],reduced
same,expression of FAS increased by LXR agonist TO901317,[2]; [9],inhibit
same,expression of SREBP1c increased by LXR agonist TO901317,[2]; [9],inhibit
same,total cholesterol level increased by alcohol,male mice; FIG. 2,reduced
same,liver injury index ALT level,male mice; FIG. 2(a),did not significantly increase
same,AST level,male mice; FIG. 2(b),lower
same,"fatty liver index, TG level",male mice; FIG. 2(c),reduced to the normal level
same,Th17 cells (IL-17 and CD4 positive),[3]; E+GF2 vs E+Veh,decreased
same,"regulatory T cells (CD4, CD25, Foxp3)",[3]; E+GF2 vs E+Veh,increased
same,"percentage of macrophage (CD11b, F4/80)","[3]; E+GF2 vs E+Veh, FIG. 6a",reduced
same,"percentage of neutrophil (CD11b, Gr-1)","[3]; E+GF2 vs E+Veh, FIG. 6b",reduced
same,percentage of CD4 T cells,[3]; FIG. 6c,no significant effects
same,percentage of CD8 T cells,[3]; FIG. 6c,no significant effects
same,percentage of NK cells,[3]; FIG. 6c,no significant effects
same,percentage of NKT cells,[3]; FIG. 6c,no significant effects
same,other immune cells,"hepatic monocytes; 50 mg/kg, 2 weeks, FIG. 8f",no significant effects
same,CD4+CD25+Foxp3+ regulatory T cells,"hepatic monocytes; 50 mg/kg, 2 weeks, FIG. 8g",increased
same,expression of macrophage (F4/80),hepatic monocytes; [10],no significant effects
same,expression of neutrophil (Gr1),hepatic monocytes; [10],no significant effects
same,expression of Foxp3,hepatic monocytes; [11],increased
same,expression of inflammatory cytokine IL-6,hepatic monocytes; [11],increased
same,expression of inflammatory cytokine IL-17,hepatic monocytes; [11],increased
same,"cytokine effects (TNF-α, IL-6, IL-17, IL-10) by ELISA of mouse serum",mouse serum,consistent
same,"expression of DAGL-α,β",[4],reduced
same,cell apoptosis in breast cancer stem cells,[5],induces cell apoptosis accompanied by autophagy
same,expression of lipogenic FAS,"co-cultured hepatocytes; Western blotting, FIG. 5b",decreased
same,expression of lipogenic SREBP1c,"co-cultured hepatocytes; Western blotting, FIG. 5b",decreased
same,expression of lipolytic pAMPK,"co-cultured hepatocytes; Western blotting, FIG. 5b",increased
same,expression of CB1R,"co-cultured hepatocytes; real-time PCR, FIG. 5c",reduced
same,expression of FAS,"co-cultured hepatocytes; real-time PCR, FIG. 5c",reduced
same,expression of SREBP1c,"co-cultured hepatocytes; real-time PCR, FIG. 5c",reduced
same,expression of glutamate receptor mGluR1 or 5,Hepatic stellate cells,significantly increased
same,IL-17-expressing Th17 cells (FACS),Naive T cells; [12],decreased
same,anti-inflammatory cytokine IL-10 (FACS),Naive T cells; [12],increased
same,Th17 cell-specific transcription factor RORγt,"Naive T cells; real-time PCR, FIG. 7c",decreased
same,Th17 cell-specific transcription factor STAT3,"Naive T cells; real-time PCR, FIG. 7c",decreased
same,expression of Abca1,"Naive T cells; real-time PCR, FIG. 7c",decreased
same,ALT level,[6]; FIG. 8a,no significant effects
same,TG level,[6]; FIG. 8a,no significant effects
same,cholesterol level,[6]; FIG. 8a,no significant effects
same,necrotic foci of the liver tissue,[6]; FIGS. 8b and 8c,no great changes
same,expression of ADH1,[7],significantly reduced
same,expression of CB1R,[7],significantly reduced
same,expression of CYP2e1,[7],significantly reduced
same,expression of FAS,[7],significantly reduced
same,expression of SREBP1c,[7],significantly reduced
same,Triglyceride accumulation (Oil-red O staining),liver tissue; FIG. 3a,reduced
same,cell damage (TUNEL staining),liver tissue; FIG. 3a,reduced
same,ethanol-induced inflammation (H&E staining),liver tissue; FIG. 3a,reduced
same,TUNEL-positive cell death caused by alcohol administration (statistical analysis),liver tissue; FIG. 3b,remarkably reduced
same,triglycerides in the liver tissue (statistical analysis),liver tissue; FIG. 3c,remarkably reduced
same,Expression of fat oxidation-inducing pAMPK,liver tissues,increased
same,expression of lipogenic FAS,liver tissues,reduced
same,expression of lipogenic SREBP1c,liver tissues,reduced
